Data as given in ChEMBL document CHEMBL4800723, “Data for DCP probe BI-1942” (2021).

Key:
[1] = target: T1, GABA-A receptor; anion channel (Rattus norvegicus) (UniProt O09028+P15431+P18506+P18508+P19969+P20236+P23574+P23576+P28471+P28473+P30191+P62813+P63079+P63138+Q91ZM7+Q9ES14); test: BZD/CENTR/R Eurofins SafetyScreen44 (BI); format: protein-complex assay; conditions: Compound concentration 10.0 uM
[2] = target: Alpha-2A adrenergic receptor (Homo sapiens) (UniProt P08913); conditions: Compound concentration 10.0 uM
[3] = target: Proteinase-activated receptor 1 (Homo sapiens) (UniProt P25116); test: PAR1(H)AGON Eurofins SafetyScreen44 (BI); conditions: filed as agonist, Compound concentration 10.0 uM
Sequence of Proteinase-activated receptor 1 (Homo sapiens) (P25116 whole entry): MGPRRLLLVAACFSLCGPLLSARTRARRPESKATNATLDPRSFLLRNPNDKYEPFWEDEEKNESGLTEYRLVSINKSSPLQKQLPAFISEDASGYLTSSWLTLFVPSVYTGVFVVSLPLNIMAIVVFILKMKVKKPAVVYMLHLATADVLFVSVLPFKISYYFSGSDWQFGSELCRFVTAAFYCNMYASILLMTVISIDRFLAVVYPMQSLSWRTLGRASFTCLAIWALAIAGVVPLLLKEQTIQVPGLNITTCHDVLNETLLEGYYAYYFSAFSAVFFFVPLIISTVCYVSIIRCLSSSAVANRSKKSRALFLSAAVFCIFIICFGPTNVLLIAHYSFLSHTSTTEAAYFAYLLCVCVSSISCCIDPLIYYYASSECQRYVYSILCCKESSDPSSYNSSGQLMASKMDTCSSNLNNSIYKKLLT

[4] = target: Matrix metalloproteinase-14 (Homo sapiens) (UniProt P50281); test: MT1-MMP(H)(MMP-14) Eurofins SafetyScreen44 (BI); conditions: Compound concentration 10.0 uM
[5] = target: Cholecystokinin receptor type A (Homo sapiens) (UniProt P32238); test: CCKA/H Eurofins SafetyScreen44 (BI); conditions: Compound concentration 10.0 uM
Sequence of Cholecystokinin receptor type A (Homo sapiens) (P32238 whole entry): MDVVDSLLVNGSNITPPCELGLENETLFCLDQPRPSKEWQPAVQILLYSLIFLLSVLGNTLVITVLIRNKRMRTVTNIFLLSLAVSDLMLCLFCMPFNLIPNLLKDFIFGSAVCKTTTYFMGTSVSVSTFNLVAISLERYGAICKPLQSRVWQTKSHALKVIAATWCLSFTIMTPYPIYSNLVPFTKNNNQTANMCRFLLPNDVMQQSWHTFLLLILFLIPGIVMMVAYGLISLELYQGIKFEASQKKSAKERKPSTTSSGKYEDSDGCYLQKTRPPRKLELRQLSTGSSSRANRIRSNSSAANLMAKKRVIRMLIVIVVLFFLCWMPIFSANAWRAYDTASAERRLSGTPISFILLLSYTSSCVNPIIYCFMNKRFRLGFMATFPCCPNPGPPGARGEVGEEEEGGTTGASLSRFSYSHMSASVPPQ

[6] = target: Histamine H1 receptor (Homo sapiens) (UniProt P35367); test: H1/PYRIL/HS Eurofins SafetyScreen44 (BI); conditions: Compound concentration 10.0 uM
Sequence of Histamine H1 receptor (Homo sapiens) (P35367 whole entry): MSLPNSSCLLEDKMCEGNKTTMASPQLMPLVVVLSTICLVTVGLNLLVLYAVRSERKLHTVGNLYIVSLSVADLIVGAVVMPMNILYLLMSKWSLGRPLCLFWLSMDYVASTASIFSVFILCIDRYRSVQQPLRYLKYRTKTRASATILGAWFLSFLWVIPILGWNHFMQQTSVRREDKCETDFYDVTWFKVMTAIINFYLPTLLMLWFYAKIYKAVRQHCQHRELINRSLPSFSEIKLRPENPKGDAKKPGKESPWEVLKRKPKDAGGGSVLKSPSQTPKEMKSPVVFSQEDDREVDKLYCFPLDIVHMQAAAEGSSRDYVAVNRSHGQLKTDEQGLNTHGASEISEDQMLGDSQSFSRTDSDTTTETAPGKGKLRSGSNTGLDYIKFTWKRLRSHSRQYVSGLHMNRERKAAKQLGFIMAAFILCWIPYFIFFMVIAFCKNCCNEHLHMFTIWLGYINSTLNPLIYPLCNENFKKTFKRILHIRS

[7] = target: D(1A) dopamine receptor (Homo sapiens) (UniProt P21728); test: D1/H Eurofins SafetyScreen44 (BI); conditions: filed as antagonist, Compound concentration 10.0 uM
Sequence of D(1A) dopamine receptor (Homo sapiens) (P21728 whole entry): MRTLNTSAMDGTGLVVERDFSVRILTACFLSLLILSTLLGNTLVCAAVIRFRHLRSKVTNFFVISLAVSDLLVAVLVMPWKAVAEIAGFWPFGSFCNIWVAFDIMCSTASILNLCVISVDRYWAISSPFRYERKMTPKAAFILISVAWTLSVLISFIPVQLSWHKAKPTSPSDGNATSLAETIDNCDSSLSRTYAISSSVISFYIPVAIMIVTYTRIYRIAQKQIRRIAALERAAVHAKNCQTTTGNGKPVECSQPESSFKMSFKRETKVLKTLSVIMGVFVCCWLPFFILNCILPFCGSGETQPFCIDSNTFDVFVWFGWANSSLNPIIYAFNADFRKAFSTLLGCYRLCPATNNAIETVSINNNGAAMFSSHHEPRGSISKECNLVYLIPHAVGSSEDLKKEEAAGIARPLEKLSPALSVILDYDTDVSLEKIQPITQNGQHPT

[8] = target: Angiotensin-converting enzyme (Homo sapiens) (UniProt P12821); test: ACE(HU_AMTCH400) Eurofins SafetyScreen44 (BI); conditions: Compound concentration 10.0 uM
[9] = target: Matrix metalloproteinase-9 (Homo sapiens) (UniProt P14780); test: MMP-9 (H) Eurofins SafetyScreen44 (BI); conditions: Compound concentration 10.0 uM
Sequence of Matrix metalloproteinase-9 (Homo sapiens) (P14780 whole entry): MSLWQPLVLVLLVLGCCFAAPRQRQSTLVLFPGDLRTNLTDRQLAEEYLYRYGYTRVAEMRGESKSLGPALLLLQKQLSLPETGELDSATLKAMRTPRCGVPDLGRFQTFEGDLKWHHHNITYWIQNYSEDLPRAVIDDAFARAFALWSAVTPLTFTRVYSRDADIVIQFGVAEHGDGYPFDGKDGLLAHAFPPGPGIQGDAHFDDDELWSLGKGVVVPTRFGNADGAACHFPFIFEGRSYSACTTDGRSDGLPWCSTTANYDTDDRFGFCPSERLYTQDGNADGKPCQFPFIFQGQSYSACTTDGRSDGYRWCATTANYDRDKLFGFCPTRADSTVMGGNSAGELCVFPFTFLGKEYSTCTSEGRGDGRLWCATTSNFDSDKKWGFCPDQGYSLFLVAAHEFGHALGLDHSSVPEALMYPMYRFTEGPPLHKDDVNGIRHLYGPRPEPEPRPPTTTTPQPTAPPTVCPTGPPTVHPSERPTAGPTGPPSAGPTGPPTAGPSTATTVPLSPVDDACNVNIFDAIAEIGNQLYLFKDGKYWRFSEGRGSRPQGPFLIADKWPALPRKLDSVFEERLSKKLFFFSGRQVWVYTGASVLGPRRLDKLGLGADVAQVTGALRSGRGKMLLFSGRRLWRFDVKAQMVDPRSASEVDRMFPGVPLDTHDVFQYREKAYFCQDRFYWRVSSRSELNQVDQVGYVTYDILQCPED

[10] = target: 5-hydroxytryptamine receptor 2B (Homo sapiens) (UniProt P41595); conditions: Compound concentration 10.0 uM
Sequence of 5-hydroxytryptamine receptor 2B (Homo sapiens) (P41595 whole entry): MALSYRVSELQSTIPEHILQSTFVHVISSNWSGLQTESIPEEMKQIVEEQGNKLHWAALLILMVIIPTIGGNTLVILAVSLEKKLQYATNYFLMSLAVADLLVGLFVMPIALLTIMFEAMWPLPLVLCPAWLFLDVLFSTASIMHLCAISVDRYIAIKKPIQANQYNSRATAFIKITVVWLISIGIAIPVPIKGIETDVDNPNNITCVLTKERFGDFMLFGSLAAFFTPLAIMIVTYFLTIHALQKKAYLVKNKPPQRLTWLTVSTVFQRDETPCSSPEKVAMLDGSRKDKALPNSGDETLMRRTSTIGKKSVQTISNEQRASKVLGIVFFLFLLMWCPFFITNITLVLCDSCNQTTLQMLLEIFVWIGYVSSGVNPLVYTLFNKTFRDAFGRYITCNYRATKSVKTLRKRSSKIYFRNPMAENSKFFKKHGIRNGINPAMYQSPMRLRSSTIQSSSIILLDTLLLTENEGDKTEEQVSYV

[11] = target: Caspase-10 (Homo sapiens) (UniProt Q92851); test: CASPASE-10(H) Eurofins SafetyScreen44 (BI); conditions: Compound concentration 10.0 uM
Sequence of Caspase-10 (Homo sapiens) (Q92851 220-415 limits assumed): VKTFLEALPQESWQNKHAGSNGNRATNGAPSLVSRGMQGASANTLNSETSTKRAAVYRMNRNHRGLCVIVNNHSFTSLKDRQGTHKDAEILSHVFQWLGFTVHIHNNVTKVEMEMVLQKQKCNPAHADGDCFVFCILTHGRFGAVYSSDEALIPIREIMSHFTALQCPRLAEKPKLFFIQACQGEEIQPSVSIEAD
Sequence of Caspase-10 (Homo sapiens) (Q92851 416-521 limits assumed): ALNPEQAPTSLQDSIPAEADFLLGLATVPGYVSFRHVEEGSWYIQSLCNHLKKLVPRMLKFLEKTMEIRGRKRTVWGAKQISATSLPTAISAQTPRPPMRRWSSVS

[12] = target: Muscarinic acetylcholine receptor M5 (Homo sapiens) (UniProt P08912); conditions: Compound concentration 10.0 uM
Sequence of Muscarinic acetylcholine receptor M5 (Homo sapiens) (P08912 whole entry): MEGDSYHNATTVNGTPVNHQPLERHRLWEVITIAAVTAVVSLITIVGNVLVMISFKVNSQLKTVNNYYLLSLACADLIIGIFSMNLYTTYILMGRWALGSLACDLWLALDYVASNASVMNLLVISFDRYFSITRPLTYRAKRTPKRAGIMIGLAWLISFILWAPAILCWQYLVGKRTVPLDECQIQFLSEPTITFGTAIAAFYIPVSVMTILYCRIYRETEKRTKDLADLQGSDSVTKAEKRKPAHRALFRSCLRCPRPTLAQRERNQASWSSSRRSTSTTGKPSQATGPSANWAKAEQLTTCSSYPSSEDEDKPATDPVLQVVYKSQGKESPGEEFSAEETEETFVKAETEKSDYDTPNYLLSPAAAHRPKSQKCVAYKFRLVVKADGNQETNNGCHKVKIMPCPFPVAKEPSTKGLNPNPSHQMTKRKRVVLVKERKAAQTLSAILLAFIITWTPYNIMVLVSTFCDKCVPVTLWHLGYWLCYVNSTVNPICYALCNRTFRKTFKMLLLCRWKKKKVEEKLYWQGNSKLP

[13] = target: Stromelysin-1 (Homo sapiens) (UniProt P08254); test: MMP-3 (H) Eurofins SafetyScreen44 (BI); conditions: Compound concentration 10.0 uM
[14] = target: D(1A) dopamine receptor (Homo sapiens) (UniProt P21728); conditions: Compound concentration 10.0 uM
[15] = target: Beta-1 adrenergic receptor (Homo sapiens) (UniProt P08588); conditions: Compound concentration 10.0 uM
Sequence of Beta-1 adrenergic receptor (Homo sapiens) (P08588 whole entry, looked up): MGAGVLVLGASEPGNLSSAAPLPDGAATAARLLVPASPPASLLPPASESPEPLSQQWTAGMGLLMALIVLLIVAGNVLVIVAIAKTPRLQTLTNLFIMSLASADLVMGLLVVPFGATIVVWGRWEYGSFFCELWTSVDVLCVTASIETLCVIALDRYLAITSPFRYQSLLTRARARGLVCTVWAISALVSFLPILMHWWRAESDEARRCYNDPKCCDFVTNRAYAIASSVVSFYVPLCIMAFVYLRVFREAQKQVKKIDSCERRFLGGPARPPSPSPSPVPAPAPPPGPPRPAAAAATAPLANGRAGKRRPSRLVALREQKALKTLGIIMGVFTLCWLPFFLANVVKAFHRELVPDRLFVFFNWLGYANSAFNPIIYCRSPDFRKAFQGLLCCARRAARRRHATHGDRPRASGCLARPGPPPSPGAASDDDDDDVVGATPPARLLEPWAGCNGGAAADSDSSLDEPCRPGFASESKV

[16] = target: T2, Kappa-type opioid receptor (Homo sapiens, UniProt P41145); test: GPCRScan assay: inhibition of KOR; design: radioligand conc. used [nm] 0.6 – 1.2, parental cells stable HEK
T2 sequence (P41145 whole entry): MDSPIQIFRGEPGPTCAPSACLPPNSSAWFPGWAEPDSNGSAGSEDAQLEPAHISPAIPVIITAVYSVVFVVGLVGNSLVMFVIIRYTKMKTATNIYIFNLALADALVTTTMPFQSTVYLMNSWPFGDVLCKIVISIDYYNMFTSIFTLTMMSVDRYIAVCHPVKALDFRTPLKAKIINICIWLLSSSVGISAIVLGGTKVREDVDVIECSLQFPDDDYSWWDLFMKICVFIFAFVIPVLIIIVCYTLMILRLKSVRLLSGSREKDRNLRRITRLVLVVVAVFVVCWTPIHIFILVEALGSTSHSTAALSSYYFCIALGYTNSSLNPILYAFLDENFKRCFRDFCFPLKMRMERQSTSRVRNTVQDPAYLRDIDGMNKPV

[17] = target: MAO-A (amine oxidase [flavin-containing] A) (Rattus norvegicus, UniProt P21396); test: MAO-A_ANTAG Eurofins SafetyScreen44 (BI); design: mode of action antagonist; scale not given: the % may be the effect or the level left; conditions: compound concentration 10 uM, read-out: % Ctrl
[18] = target: T2, Kappa-type opioid receptor; test: KAPPA(KOP)_HU Eurofins SafetyScreen44 (BI); conditions: Compound concentration 10.0 uM
[19] = target: D(1B) dopamine receptor (Homo sapiens) (UniProt P21918); conditions: Compound concentration 10.0 uM
[20] = target: Serotonin 3 (5-HT3) receptor (Homo sapiens) (UniProt P46098+A5X5Y0+O95264+Q70Z44+Q8WXA8); test: 5HT3/H Eurofins SafetyScreen44 (BI); format: protein-complex assay; conditions: Compound concentration 10.0 uM
[21] = target: Caspase-3 (Homo sapiens) (UniProt P42574); test: CASPASE-3 Eurofins SafetyScreen44 (BI); conditions: Compound concentration 10.0 uM
Sequence of Caspase-3 (Homo sapiens) (P42574 29-175 limits assumed): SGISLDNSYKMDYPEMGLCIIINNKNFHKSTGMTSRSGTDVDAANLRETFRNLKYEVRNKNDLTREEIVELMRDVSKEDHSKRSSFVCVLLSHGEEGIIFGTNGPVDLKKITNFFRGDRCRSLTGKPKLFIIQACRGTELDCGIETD
Sequence of Caspase-3 (Homo sapiens) (P42574 176-277 limits assumed): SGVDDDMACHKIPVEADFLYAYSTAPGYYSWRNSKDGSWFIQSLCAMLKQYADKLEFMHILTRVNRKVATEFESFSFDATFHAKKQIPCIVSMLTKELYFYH

[22] = target: Adenosine receptor A2a (Homo sapiens) (UniProt P29274); test: A2A/H Eurofins SafetyScreen44 (BI); conditions: filed as antagonist, Compound concentration 10.0 uM
[23] = target: Delta-type opioid receptor (Homo sapiens) (UniProt P41143); test: DELTA2/H Eurofins SafetyScreen44 (BI); conditions: Compound concentration 10.0 uM
[24] = target: Histamine H2 receptor (Homo sapiens) (UniProt P25021); conditions: Compound concentration 10.0 uM
[25] = target: 72 kDa type IV collagenase (Homo sapiens) (UniProt P08253); test: MMP-2 (H) Eurofins SafetyScreen44 (BI); conditions: Compound concentration 10.0 uM
[26] = target: Cathepsin D (Homo sapiens) (UniProt P07339); test: CATHEPSIND Eurofins SafetyScreen44 (BI); conditions: Compound concentration 10.0 uM
[27] = target: 5-hydroxytryptamine receptor 1B (Homo sapiens) (UniProt P28222); test: 5HT1B(H) Eurofins SafetyScreen44 (BI); conditions: filed as antagonist, Compound concentration 10.0 uM
[28] = target: D(2) dopamine receptor (Homo sapiens) (UniProt P14416); test: D2SH_AGON Eurofins SafetyScreen44 (BI); conditions: filed as agonist, Compound concentration 10.0 uM
[29] = target: 5-hydroxytryptamine receptor 1A (Homo sapiens) (UniProt P08908); test: 5HT1A/H Eurofins SafetyScreen44 (BI); conditions: Compound concentration 10.0 uM
[30] = target: Cannabinoid receptor 1 (Homo sapiens) (UniProt P21554); test: CB1(HU)_AGON Eurofins SafetyScreen44 (BI); conditions: Rattus norvegicus; filed as agonist; Compound concentration 10.0 uM
[31] = target: Macrophage metalloelastase (Homo sapiens) (UniProt P39900); test: MMP-12 Eurofins SafetyScreen44 (BI); conditions: Compound concentration 10.0 uM
[32] = target: Sodium-dependent serotonin transporter (Homo sapiens) (UniProt P31645); test: SLC6A4/H Eurofins SafetyScreen44 (BI); conditions: filed as antagonist, Compound concentration 10.0 uM
[33] = target: 5-hydroxytryptamine receptor 2C (Homo sapiens) (UniProt P28335); conditions: Compound concentration 10.0 uM
[34] = target: Glucocorticoid receptor (Homo sapiens) (UniProt P04150); test: GCORTICOID/H Eurofins SafetyScreen44 (BI); conditions: Compound concentration 10.0 uM
[35] = target: Cannabinoid receptor 2 (Homo sapiens) (UniProt P34972); test: CB2/PERIPH/H Eurofins SafetyScreen44 (BI); conditions: Compound concentration 10.0 uM
[36] = target: Human immunodeficiency virus type 1 protease (Human immunodeficiency virus 1) (UniProt Q72874); test: HIV-1/H Eurofins SafetyScreen44 (BI); conditions: Compound concentration 10.0 uM
[37] = target: Sigma intracellular receptor 2 (Homo sapiens) (UniProt Q5BJF2); conditions: Compound concentration 10.0 uM
[38] = target: T1, GABA-A receptor; anion channel (Rattus norvegicus); conditions: Compound concentration 10.0 uM
[39] = target: T2, Kappa-type opioid receptor; conditions: Compound concentration 10.0 uM
[40] = target: Histamine H1 receptor (Homo sapiens) (UniProt P35367); conditions: Compound concentration 10.0 uM
[41] = target: Alpha-1B adrenergic receptor (Homo sapiens) (UniProt P35368); conditions: Compound concentration 10.0 uM
[42] = target: Beta-1 adrenergic receptor (Homo sapiens) (UniProt P08588); test: BETA1/HUM Eurofins SafetyScreen44 (BI); conditions: Compound concentration 10.0 uM

CC[C@H](CC(=O)O)n1c(=O)c2ncccc2n(Cc2cn(C)c3cc(C)cc(C)c23)c1=O [BI-1942]
residual activity [1]: 129%
inhibition [2]: 19.6%
residual activity [3]: 100%
residual activity [4]: 134%
residual activity [5]: 98%
residual activity [6]: 100%
residual activity [7]: 96%
residual activity [8]: 99%
residual activity [9]: 124%
inhibition [10]: 5.53%
residual activity [11]: 111%
inhibition [12]: 8.73%
residual activity [13]: 90%
inhibition [14]: 20.3%
inhibition [15]: 10.4%
Ki ([16]; read-out: Ki): 4.95 µM
Ki ([16]; read-out: pKi (converted)): 4.79 µM
activity at 10 µM [17]: 86% (not active)
residual activity [18]: 89%
inhibition [19]: 22.2%
residual activity [20]: 97%
residual activity [21]: 97%
residual activity [22]: 98%
residual activity [23]: 95%
inhibition [24]: -4.71%
residual activity [25]: 103%
residual activity [26]: 118%
residual activity [27]: 86%
residual activity [28]: 108%
residual activity [29]: 79%
residual activity [30]: 114%
residual activity [31]: 104%
residual activity [32]: 86%
inhibition [33]: 1.02%
residual activity [34]: 107%
residual activity [35]: 109%
residual activity [36]: 111%
inhibition [37]: -9.5%
inhibition [38]: 3.5%
inhibition [39]: 95.9%
inhibition [40]: 14.1%
inhibition [41]: -5.58%
residual activity [42]: 105%
